Measured values reported in publication PMC3894558, “Chemical signatures and new drug targets for gametocytocidal drug development” (Scientific Reports, 2014).
Like-named read-outs stand apart in the source and are kept apart here.

Tested on: P. falciparum 3D7 gametocytes
Assay: alamarBlue gametocyte viability assay, strain 3D7
Assay type: cell-based, Plasmodium falciparum
Conditions: Malaria Box; for Max Resp: DMSO set at 0%, 100 nM epoxomicin set at -100%; for Curve Class / IC50: stages III-V 3D7 gametocytes; for IC50: 11 concentrations, 1:3 dilution; call rule not given here

SMILES	Max Resp [%]	Curve Class	IC50	IC50 (read-out: IC50) [µM]
CCOc1cc(Cl)c(C(C)NC(=O)c2ccccc2)cc1OCC (stereo not drawn) [MMV665800]	-48	-2.2	Inactive	–
O=C(NC1CCN(Cc2ccccc2)CC1)c1cc(-c2cccnc2)nc2ccc(Cl)cc12 [MMV020490]	-61	-2.2	–	29.6
O=C(NCCCN1CCC(N2CCCCC2)CC1)C1=Cc2cc(Br)ccc2OC1 [MMV019995]	-99	-1.1	–	5.26
O=C(Nc1ccc(Cl)c(Cl)c1)Nc1ccc(Cl)c(Cl)c1 [MMV665852]	-88	-2.1	–	23.5
Cc1ccc(Nc2nc(N)c3ccccc3n2)cc1Cl [MMV011522]	-73	-2.2	–	14.8
CC1CN(C(=O)c2sc3ccccc3c2Cl)CC(C)O1 (stereo not drawn) [MMV020492]	-36	-2.2	Inactive	–
O=C(Nc1ccc(Cl)cc1C(=O)Nc1ccncc1)c1ccc(Cl)cc1Cl [MMV666057]	-57	-2.2	–	29.6
COc1ccc2c(c1OC)C(=O)N1c3ccccc3N=C(c3ccc(C)cc3)CC21 (stereo not drawn) [MMV000917]	-63	-2.2	–	29.6
CC1CCN(Cc2c(O)ccc3cc(-c4nc5ccccc5s4)c(=O)oc23)CC1 [MMV009127]	-72	-2.2	–	29.6
O=C(NC1CCN(Cc2ccccc2)CC1)c1cc(C(=O)NC2CCN(Cc3ccccc3)CC2)cc(C(=O)NC2CCN(Cc3ccccc3)CC2)c1 [MMV019881]	-90	-1.1	–	2.96
O=C(Nc1cccc(C(F)(F)F)c1)c1cc(Cl)ccc1O [MMV665807]	-84	-2.1	–	20.9
FC(F)(F)c1cccc(Nc2nc(-c3ccccc3)nc3ncccc23)c1 [MMV665798]	-7	4	Inactive	–
CCOc1cccc2sc(N(Cc3cccnc3)C(=O)C3CCCCC3)nc12 [MMV001230]	-26	4	Inactive	–
Cc1ccc(Cn2c(N3CCC(C(=O)NCc4cccs4)CC3)nc3ccccc32)cc1 [MMV007564]	-54	-2.2	Inactive	–
CSc1ccccc1C(=O)Nc1nc(-c2ccccn2)cs1 [MMV001246]	-72	-2.2	–	11.8
COc1ccc(C)c2sc(N(Cc3cccnc3)C(=O)c3ccc(C#N)cc3)nc12 [MMV001241]	-48	-2.2	Inactive	–
CCOc1c(Cl)cc(CNC(C)C(O)c2ccccc2)cc1OC (stereo not drawn) [MMV665857]	-77	-2.2	–	14.8
COc1cc(OC)cc(N2C(=O)N(Cc3ccc(C(C)(C)C)cc3)c3ccccc3S2(=O)=O)c1 [MMV008173]	0	4	Inactive	–
CN1c2ccccc2N(C)C1c1ccc2c(c1)OCO2 [MMV666009]	-36	-2.4	Inactive	–
Cc1ccc(-c2cc3c(nn2)-c2ccccc2C3=O)cc1 [MMV666021]	-4	4	Inactive	–

SMILES	Max Resp [%]	Curve Class	IC50	IC50 (read-out: IC50) [µM]
Cl.N=c1n(CCN2CCCCC2)c2ccccc2n1CC(O)c1cccc(Br)c1 (stereo not drawn) [MMV665902]	-99	-1.1	–	3.72
Oc1ccccc1CN1CCC2(CCCN(Cc3ccccc3F)C2)C1 (stereo not drawn) [MMV666116]	-46	-1.2	–	0.662
CCCN(CCC)CC(O)COc1ccccc1C(=O)Nc1ccccc1 (stereo not drawn) [MMV006455]	-40	-1.2	–	0.743
Cc1cc(N2CCCC2)nc(Nc2ccc(NC(=O)CCc3ccccc3)cc2)n1 [MMV396669]	-75	-2.2	–	11.8
O=C(Nc1ccc(N2CCCCC2)c(Cl)c1)c1ccc(Br)o1 [MMV019700]	17	4	Inactive	–
COc1ccc(C(=O)Nc2nonc2-c2ccc(OC)c(OC)c2)cc1Cl [MMV011567]	1	4	Inactive	–
Cc1ccc(-c2cc(C(=O)Nc3ccc(S(=O)(=O)N4CCCCC4)cc3)[nH]n2)c(O)c1 [MMV665906]	-61	-1.2	–	5.26
CCOc1cc2c(cc1OCC)C(c1cc(OC)c(O)cc1Cl)NCC2 (stereo not drawn) [MMV008956]	-73	-1.2	–	3.32
CCCCNCC(O)(c1ccc(Cl)cc1)c1ccc(Cl)cc1 [MMV665929]	-73	-1.2	–	2.96
COc1ccc(C2N(C)c3ccccc3N2C)cc1 [MMV666075]	-34	-2.4	Inactive	–
CCN(CC)c1ccc(NC(=O)c2cccs2)cc1 [MMV009060]	20	4	Inactive	–
COc1ccc2nc(C)cc(Nc3ccccc3O)c2c1 [MMV274073]	-66	-2.2	–	23.5
COc1ccccc1NC1=C(N2CCCCC2)C(=O)c2ccccc2C1=O [MMV085203]	-97	-2.1	–	7.43
O=C(NCC(c1ccsc1)N1CCCCCC1)c1ccc(C(F)(F)F)cc1 (stereo not drawn) [MMV396672]	-37	-2.2	Inactive	–
Fc1ccc2[nH]c3c(NCCCN4CCOCC4)ncnc3c2c1 [MMV019871]	-42	-2.2	Inactive	–
O=[N+]([O-])c1ccc(C=NNc2nc3ccccc3[nH]2)cc1 [MMV666607]	-57	-2.2	–	29.6
CCCCC(O)(c1ccc(Cl)cc1)C(CN1CCOCC1)c1ccc(Cl)cc1.Cl (stereo not drawn) [MMV000619]	-51	-2.2	Inactive	–
Cc1cc(NCCN2CCCCC2)c2ccc3ccccc3c2n1 [MMV006203]	-94	-1.1	–	8.33
COc1ccc(-c2nc3cc(Cc4ccc5[nH]c(-c6ccc(OC)cc6)nc5c4)ccc3[nH]2)cc1 [MMV007384]	-59	-2.2	–	37.2
CC1CCCCN1CCCNC(=O)c1ccc2c(c1)sc1nc(-c3ccc(F)cc3)cn12 (stereo not drawn) [MMV000634]	-84	-2.1	–	10.5

SMILES	Max Resp [%]	Curve Class	IC50	IC50 (read-out: IC50) [µM]
CN(C)c1ccc(N2C(N)=NC(N)=NC2(C)C)cc1 [MMV667487]	-4	4	Inactive	–
CCOc1cc(Cl)c(C(C)NC(=O)c2cccc(OC)c2)cc1OCC (stereo not drawn) [MMV665803]	-58	-2.2	–	29.6
CCCCCCn1c(=N)n(CC(O)COc2cccc(C)c2)c2ccccc21.Cl (stereo not drawn) [MMV000445]	-110	-1.1	–	7.43
COc1ccc(-c2c(C)nn3c(N)c(C#N)cnc23)cc1OC [MMV396797]	-90	-1.1	–	6.62
COc1ccc(-c2nonc2NC(=O)c2cccc(C)c2)cc1OC [MMV665890]	-38	-3	Inactive	–
CCOc1ccc(/C=C/c2nc(=O)c3ccccc3o2)cc1 [MMV665940]	46	2.2	–	18.7
O=C(NCc1ccco1)C1CCN(S(=O)(=O)c2ccc(Cl)cc2)CC1 [MMV006188]	19	4	Inactive	–
CCOc1ccc(Nc2c3ccccc3nc3ccccc23)cc1.Cl [MMV000304]	-95	-2.1	–	16.6
O=C(CCl)NCCOc1ccc(Cl)cc1Cl [MMV665927]	-88	-2.1	–	16.6
COc1ccc(C(=O)Nc2ccc3nc(N4CCCCC4)cc(C)c3c2)cc1OC [MMV019758]	-32	-3	Inactive	–
COc1ccc(-c2nc(N3CCN(C(=O)C4CCCCC4)CC3)c3c4c(sc3n2)CCCC4)cc1 [MMV396594]	-12	4	Inactive	–
COc1ccccc1CNC(=O)CCn1c(=O)[nH]c2ccsc2c1=O [MMV019066]	-11	4	Inactive	–
CCCCc1ccc(NS(=O)(=O)c2cc3c4c(c2)CCN4C(=O)CC3)cc1 [MMV001255]	2	4	Inactive	–
COc1ccc(NC(=O)C2c3ccccc3C(=O)N(CC(C)C)C2c2cccs2)cc1 (stereo not drawn) [MMV000662]	-81	-1.1	–	4.18
Cc1ccnc(NC(c2cccc(OCc3ccccc3)c2)c2ccc3cccnc3c2O)c1 (stereo not drawn) [MMV000720]	-112	-2.1	–	13.2
OC(CNC1CCCCC1)Cn1c2ccc(I)cc2c2cc(I)ccc21 (stereo not drawn) [MMV665882]	-97	-2.1	–	2.96
CN(C)c1ccc(C=Cc2nc(=O)c3ccccc3o2)cc1 [MMV006309]	2	4	Inactive	–
COc1nc(Nc2ccc(C(C)C)cc2)nc(OC)n1 [MMV007808]	-9	4	Inactive	–
Cc1cc(NC(=O)c2cccc(C(F)(F)F)c2)n(-c2nc(-c3ccc4c(c3)OCO4)cs2)n1 [MMV396681]	-3	4	Inactive	–
